The record followed here is PubChem BioAssay AID179 (DTP/NCI, 2004).

A word on the EC50: it is the midpoint of the concentration-response curve. As a reminder, the IC50 is the concentration that gives 50% inhibition. A higher IC50 goes with weaker potency.

The assay relates to CEM cells HIV-1 protection, formazan growth assay. Description: NCI AIDS Antiviral Assay. The note with it: for IC50: measured here: growth of uninfected CEM cells. In short, it runs like this:
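Protection of CEM cells against HIV-1 was scored from cell growth (soluble formazan) across five concentrations, with parallel uninfected cells. Lack of protection may reflect toxicity.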

SMILES strings stand for the structures. “And” between values parts separate entries of the source, which are not always exact repeats. Equal values may be shown once. The source made the active and inactive calls.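 Rule for the calls: active = compounds giving half or more protection of infected cells from virus-caused growth loss, again on retest; inactive = the rest.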 Where a SMILES comes first, the peptide text is derived from it. The star is where a group is joined. Cbz = O=C(OCc1ccccc1)*

As for `CC(SCCCCCCSC(C)C(=O)O)C(=O)O` (stereo unspecified), the EC50 was more than 851 µM and the concentration for half-maximal inhibition (IC50) was more than 851 µM.

Regarding `CCC12CCCN(Cc3ccccc3)C1c1c(n(C)c3ccccc13)C(C(=O)O)C2` (stereo unspecified), the EC50 is more than 7.76 µM and the IC50 was more than 7.76 µM.

On to `COc1cc(-c2oc3c(OC)cc(OC)c(O)c3c(=O)c2OC)cc(OC)c1OC`, for which the EC50 is more than 200 µM and the IC50 was more than 200 µM.

Take `O=C(O)c1cc(C(=O)O)c(C(=O)O)c(C(=O)O)c1C(=O)O`: the result was inactive.

For `Cn1nnnc1SCC1=C(C(=O)O)N2C(=O)C(NC(=O)C(OC=O)c3ccccc3)C2SC1` (stereo unspecified), the EC50 is more than 200 µM and the IC50 is more than 200 µM.

For `Cc1ccccc1NC(=O)CSc1nnc(-c2ccc(N=Cc3ccc(Cl)cc3)cc2)o1`, the EC50 is more than 389 µM and the IC50 was 5.62 µM.

In the case of `O=c1[nH]nc(-c2ccccc2)n1-c1cccc([N+](=O)[O-])c1`, the EC50 was more than 200 µM and the IC50 was more than 200 µM.

Regarding `COc1cccc(-c2c(C#N)c(N)nc3c2CCS(=O)(=O)c2ccc(C)cc2-3)c1`, the EC50 is more than 200 µM and the IC50 was more than 200 µM.

On to `CCOC(=O)/C=C1\Oc2ccccc2C1(C)O` (stereo unspecified), for which the EC50 was more than 562 µM and the IC50 was more than 562 µM.

For `CCNc1nnc(-c2nsc3ccccc23)s1`, the EC50 is more than 20 µM and the IC50 is more than 20 µM.

`O=C(Nc1ccccc1)OCCN=c1c2ccccc2ccc2ccccc12`: the EC50 was 17 µM and the IC50 came out at 24.5 µM.

Regarding `CCOC(=O)Nc1nc2ccc(Cn3cccc3)cc2[nH]1`, the EC50 is more than 13.2 µM and the IC50 was found to be 0.794 µM.

On to `O=C(O)CCSC(=O)Nc1ccccc1`, for which the outcome was inactive.

For `COc1ccc(-c2cc(-c3ccccc3)c3ccccc3n2)c(OC)c1OC`, the EC50 was more than 200 µM and the IC50 was more than 200 µM.

Regarding `CCC(=O)C(C(C)/C=C/CCSc1ccccc1)C(O)CCCCCC(=O)OC` (stereo unspecified), the EC50 was more than 200 µM and the IC50 amounted to 36.3 µM.

As for `O=C(O)c1ccccc1C(=O)OCC1CCCN2CCCCC12` (stereo unspecified), the EC50 was more than 151 µM and the IC50 was more than 151 µM.

In the case of `Cn1c(=O)c2cc(O)cnc2n(C)c1=O`, the EC50 is more than 200 µM and the IC50 is more than 200 µM.

For the compound `CC(NC(=O)C(CO)NC(=O)C(C)NC(=O)C(C)NC(=O)C(CC(N)=O)NC(=O)CN)C(N)=O` (stereo unspecified) (H-GNAASA-NH2; configuration not given here), the result was inactive.

Regarding `CCC(C)(C)OC(=O)CC[C@@H](C)[C@H]1CC[C@H]2[C@@H]3CCC4CC(O)CC[C@]4(C)[C@H]3CC[C@]12C` (stereo partly specified), the EC50 was more than 200 µM and the IC50 is 27.5 µM.

Turning to `CSc1nc2c(n1-c1ccccc1)C(=O)C(OS(=O)(=O)c1ccccc1)C(=O)N2` (stereo unspecified), the EC50 is more than 200 µM and the IC50 is more than 200 µM.

Turning to `Cc1c(Cl)cccc1NC(=O)CC1Sc2ccccc2NC1=O` (stereo unspecified), the EC50 was more than 27.5 µM; the IC50 is > 27.5 µM and 15.5 µM.

In the case of `O=C(O)C1CCC(C(=O)O)SS1` (stereo unspecified), the EC50 was more than 1200 µM and the IC50 was more than 1200 µM.

For `CN1C(=O)CN2CCc3ccccc3C2c2cc(Cl)ccc21` (stereo unspecified), the EC50 was more than 200 µM and the IC50 came out at 129 µM.

With `CN(C)CCNC(=O)c1cccc2c1Oc1c(cccc1[N+](=O)[O-])O2`, the EC50 is more than 20 µM and the IC50 came to 0.245 µM.

Consider `CCOC(=O)c1c(-c2cc(OC)c(OC)c(OC)c2)csc1NC(=O)c1ccccc1`, for which the EC50 was more than 200 µM and the IC50 worked out at 12.6 µM.

Turning to `CCOC(=O)N1N=C(c2ccccc2)OC2(N3CCCC3)CCC(C(C)(C)C)CC12` (stereo unspecified), the EC50 is 44.7 µM and the 50% inhibitory concentration (IC50) was 105 µM.

Regarding `COc1cc(Cl)c2c3c(c(C(=O)c4ccccc4)oc13)CCC2`, the result was inactive.

For `Cn1cc(C(=O)C[n+]2ccccc2)c2ccccc21`, the EC50 is more than 224 µM and the IC50 stood at 81.3 µM.

Take `O=C(NNc1nc(-c2ccccc2)cs1)Nc1ccccc1`: the EC50 is more than 200 µM and the half-inhibitory concentration (IC50) turned out to be 40.7 µM.

As to `CN(C)c1ccc(/[N+]([O-])=C/c2cc(=O)c(OS(C)(=O)=O)co2)cc1`, the EC50 was more than 200 µM and the IC50 turned out to be 3.09 µM.

As for `C=C[C@@](C)(/C=C/c1ccc(O)cc1)CCC=C(C)C`, the EC50 is more than 200 µM and the IC50 worked out at 25.1 µM.

`CS/C(=C\c1ccc(C(=O)c2ccc(C)cc2)n1C)S(C)=O` (stereo unspecified): the EC50 is more than 200 µM and the IC50 was determined as 12.3 µM.

Consider `C1=Cc2nc1c(-c1ccncc1)c1ccc([n-]1)c(-c1ccncc1)c1nc(c(-c3ccncc3)c3ccc([n-]3)c2-c2ccncc2)C=C1.[Zn+2]`, for which the EC50 is more than 19.1 µM and the IC50 is more than 19.1 µM.

In the case of `O=C(NCCCCCCCN1CCCCCCC1)C(C1CCCCC1)C1CCCCC1`, the EC50 was more than 200 µM and the 50% inhibitory concentration (IC50) turned out to be 10.7 µM.

In the case of `CC(C)CC(=O)NC(Nc1ccc(S(=O)(=O)Nc2ncccn2)cc1)(C(F)(F)F)C(F)(F)F`, the EC50 was more than 200 µM and the IC50 is more than 200 µM.

For the compound `NC1=CN(Cc2ccccc2)C2=N/C(=C\c3ccco3)C(=O)N12`, the EC50 was more than 200 µM and the IC50 turned out to be 191 µM.

On to `CCCOC(=O)c1ccc(N)cc1`, for which the EC50 was more than 200 µM and the IC50 was more than 200 µM.

On to `O=C(O)CCCNS(=O)(=O)c1ccc2ccccc2c1`, for which the result was inactive.

With `CCSc1[nH]c(NC(=NC(C)C)NC(=O)c2ccccc2)c(C(N)=O)c1C(N)=O`, the outcome was inactive.

As to `CC(=O)[O-].N.N.N.N.N.[Co+3].[O-][Cl+3]([O-])([O-])[O-]`, the outcome was inactive.

As for `CC[C@H](OCc1ccccc1)/C(C)=C/C[C@@H](C)CO`, the EC50 was more than 27.5 µM and the IC50 was more than 27.5 µM.

Consider `Brc1ccc2[nH]cc(/C=N/N3CCCCCC3)c2c1`, for which the EC50 was more than 112 µM and the IC50 is more than 112 µM.

With `COC(=O)C1=C(CS(=O)c2ccc([N+](=O)[O-])cc2[N+](=O)[O-])C2C=CC1C2` (stereo unspecified), the result was inactive.

Take `COC(=O)C1(CCSc2ccccc2)CCCC1=O` (stereo unspecified): the EC50 is more than 13.5 µM and the IC50 is more than 13.5 µM.

Turning to `O=[N+]([O-])c1ccc(Cl)cc1N/N=C/c1cccc2cccnc12`, the EC50 is more than 200 µM and the IC50 is more than 200 µM.

Turning to `COC(=O)Nc1cn2c(n1)SCC2`, the EC50 is more than 200 µM and the IC50 was more than 200 µM.

On to `CCOC(=O)CCC(NC(=O)CNC(=O)CNC(=O)C(CCC(=O)OCC)NC(=O)C(CCC(=O)OCC)NC(=O)C(CCC(=O)OCC)NC(=O)OCc1ccccc1)C(=O)NC(CCC(=O)OCC)C(=O)NC(CCC(=O)OCC)C(=O)OCC` (stereo unspecified) (Cbz-E(OEt)E(OEt)E(OEt)GGE(OEt)E(OEt)E(OEt)-OEt; configuration not given here), for which the EC50 was more than 200 µM and the IC50 is more than 200 µM.

For the compound `CCCCCCCCCCCCCCCc1nc(SCC(=O)O)n[nH]1`, the EC50 is more than 3.89 µM and the IC50 was more than 3.89 µM.

Take `CC1(C)O[C@@H](CP(c2ccc3ccccc3c2)c2ccc3ccccc3c2)[C@H](CP(c2ccc3ccccc3c2)c2ccc3ccccc3c2)O1`: the EC50 is more than 200 µM and the IC50 came out at 129 µM.

For `OC1(c2ccccc2)CC(c2ccccc2)c2ccccc2O1` (stereo unspecified), the EC50 was more than 200 µM and the IC50 was found to be 31.6 µM.

On to `O=C(OC1=CCN(Br)C1=O)C1=C(O)C(=O)N(Br)C1`, for which the EC50 was more than 200 µM and the IC50 came out at 32.4 µM.

Consider `FC(F)=C(c1ccc(-c2ccc(Cl)cc2)cc1)C(F)(F)F`, for which the EC50 is more than 200 µM and the IC50 stood at 20.9 µM.

With `CCCCCCCCCCCCCCCC[N+](C)(C)CCN(Cc1ccc(OC)cc1)c1ncccn1`, the EC50 was more than 200 µM and the concentration for half-maximal inhibition (IC50) came out at 0.977 µM.

Take `CCOC(=O)Nn1cnnc1C`: the EC50 was more than 200 µM and the IC50 is more than 200 µM.

For `COc1ccc(-c2nc(Nc3ccccc3)sc2Cc2sc(Nc3ccccc3)nc2-c2ccc(OC)cc2)cc1`, the result was inactive.

`O=C(O)c1ccccc1-n1nc(C(=O)O)c(N=Nc2ccc(/C=C/c3ccc(N=Nc4c(C(=O)O)nn(-c5ccccc5C(=O)O)c4O)cc3S(=O)(=O)O)c(S(=O)(=O)O)c2)c1O`: the EC50 was more than 0.977 µM and the IC50 was more than 0.977 µM.

Consider `CCOC(=O)Cc1csc2[n+]1C(=O)/C(=C\c1cccc(Cl)c1Cl)S2`, for which the EC50 was more than 200 µM and the IC50 worked out at 21.4 µM.

For `Cc1cccc(-c2nnc3s/c(=C\c4ccc(N(C)C)cc4)c(=O)n23)c1`, the EC50 was more than 30.9 µM and the IC50 is more than 30.9 µM.

For the compound `N#C/C(=C/NC(=S)Nc1ccc(S(N)(=O)=O)cc1)C(N)=O`, the EC50 is more than 200 µM and the IC50 came to 178 µM.

With `COC(=O)/C=C(\C(=O)OC)c1c2c3c(cc(OC)c(OC)c3c3ccccc13)CCN2C`, the result was inactive.

For `COc1cc(-c2oc3cc(OC)c(OC)c(OC)c3c(=O)c2OC)cc(OC)c1OC`, the EC50 was more than 200 µM and the concentration for half-maximal inhibition (IC50) is 26.3 µM.

As for `Clc1ccc(/C=N\N2CCCCCC2)c(Cl)c1`, the outcome was inactive.

As to `CC(=O)[O-].Cc1ccnc(NS(=O)(=O)c2ccc(N=Cc3ccccc3[O-])cc2)n1.Cc1ccnc(NS(=O)(=O)c2ccc(N=Cc3ccccc3[O-])cc2)n1.[Cu+2]`, the EC50 was more than 200 µM and the IC50 worked out at 5.62 µM.

As to `Nc1ccccc1C(=O)/C=C/c1c(O)ccc2ccccc12`, the outcome was inactive.

For the compound `CO[C@@](c1ccccc1)(c1nc(C#N)c(N)o1)C(F)(F)F`, the EC50 was 79.4 µM and the IC50 was 115 µM.

For the compound `CC(=O)N1C(=O)c2cc3ccccc3cc21`, the EC50 is more than 200 µM and the 50% inhibitory concentration (IC50) is more than 100 µM.

`CCN(CC)CCN(C)c1ccc(/C=C/c2ccnc3ccccc23)cc1`: the outcome was inactive.

`Cn1nc(-c2ccccc2)c2c(/C=C/c3ccccc3)onc2c1=O`: the outcome was inactive.

In the case of `O=S(Nc1ccccc1)c1ccccc1Oc1ccccc1` (stereo unspecified), the outcome was inactive.

For the compound `COC(=O)c1cc(C)ccc1C1CN=NC12Cc1ccc(C)cc1C2=O` (stereo unspecified), the EC50 was 145 µM and the IC50 is 182 µM.

Take `O=C1NC2=C(CCCC/C2=N\O)C12CCCCC2`: the result was inactive.
